In patent US7384931B2, “Constrained compounds as CGRP-receptor antagonists” (Bristol-Myers Squibb Company, priority 2004, dated 2008):

Biological target: CGRP receptor (Homo sapiens, UniProt O60894+Q16602)
Assay: CGRP radioligand binding assay ([125I]-CGRP displacement, SK-N-MC homogenate)
Set-up: endogenous in cells; host or cells: SK-N-MC cells (homogenate/membrane pellet)
Conditions: displacement of [125I]-CGRP, room temperature 2 h
How it was run: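 SK-N-MC cell homogenate (5 μg/well) was incubated 2 h at room temperature with [125I]-CGRP (diluted to 60 pM before addition) in 50 mM Tris-Cl pH 7.5, 5 mM MgCl2, 0.005% Triton X-100 plus protease inhibitors. Bound radioactivity was collected by filtration; 1 μM beta-CGRP defined non-specific binding. IC50 is 50% radioligand displacement.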

Chain of CGRP receptor (Q16602 23-461): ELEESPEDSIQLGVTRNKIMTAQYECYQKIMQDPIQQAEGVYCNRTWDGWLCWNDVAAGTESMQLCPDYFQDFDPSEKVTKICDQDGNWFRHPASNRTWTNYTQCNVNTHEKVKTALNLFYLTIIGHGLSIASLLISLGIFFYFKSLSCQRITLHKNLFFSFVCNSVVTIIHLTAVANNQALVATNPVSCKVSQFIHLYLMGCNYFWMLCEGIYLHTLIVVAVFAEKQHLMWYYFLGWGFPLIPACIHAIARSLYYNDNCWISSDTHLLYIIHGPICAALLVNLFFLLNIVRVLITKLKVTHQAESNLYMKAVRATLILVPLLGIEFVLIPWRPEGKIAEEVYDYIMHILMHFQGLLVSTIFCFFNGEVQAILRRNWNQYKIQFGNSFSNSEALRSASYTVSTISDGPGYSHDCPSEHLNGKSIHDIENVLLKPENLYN
Chain of CGRP receptor (O60894 27-148): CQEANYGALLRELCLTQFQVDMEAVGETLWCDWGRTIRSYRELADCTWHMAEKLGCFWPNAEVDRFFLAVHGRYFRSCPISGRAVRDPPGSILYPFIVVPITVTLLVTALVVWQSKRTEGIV

| Compound | IC50 |
| --- | --- |
| O=C1Nc2ccccc2C2(CCN(C(=O)NC3Cc4ccc5[nH]ncc5c4CN(Cc4ccncc4)C3=O)CC2)N1 (centres unmarked) [Example 29, N-[9-pyridin-4-ylmethyl-8-oxo-3,6,7,8,9,10-hexahydroazepino[3,4-e]indazol-7-yl]-2′-oxo-2′,3′-dihydro-1H,1′H-spiro[piperidine-4,4′-quinazoline]-1-carboxamide] | 100 to 1000 nM |
| O=C(C[C@@H]1Cc2cc(Cl)c3[nH]ncc3c2CN(Cc2ccncc2)C1=O)N1CCC(c2cc(-c3ccccc3)[nH]n2)CC1 [Example 35, (S)-4-Chloro-7-(2-oxo-2-(4-(5-phenyl-1H-pyrazol-3-yl)piperidin-1-yl)ethyl)-9-(pyridin-4-ylmethyl)-6,7,9,10-tetrahydroazepino[3,4-e]indazol-8(3H)-one] | 10 to 100 nM |
| CC(C)c1cc2c(c3cn[nH]c13)CN(CC(F)(F)F)C(=O)[C@H](CC(=O)N1CCC(c3cc4cccc(F)c4[nH]c3=O)CC1)C2 [Example 107, (S)-7-(2-(4-(8-fluoro-2-oxo-1,2-dihydroquinolin-3-yl)piperidin-1-yl)-2-oxoethyl)-4-isopropyl-9-(2,2,2-trifluoroethyl)-6,7,9,10-tetrahydroazepino[3,4-e]indazol-8(3H)-one] | 100 to 1000 nM |
| O=C(C[C@@H]1Cc2cc(Br)c3[nH]ncc3c2CN(CC(F)(F)F)C1=O)N1CCC(c2cc3cccc(F)c3[nH]c2=O)CC1 [Example 98, (S)-4-bromo-7-(2-(4-(8-fluoro-2-oxo-1,2-dihydroquinolin-3-yl)piperidin-1-yl)-2-oxoethyl)-9-(2,2,2-trifluoroethyl)-6,7,9,10-tetrahydroazepino[3,4-e]indazol-8(3H)-one] | 10 to 100 nM |
| C[C@@H](c1ccccc1)N1Cc2c(ccc3[nH]ncc23)C[C@@H](NC(=O)N2CCC3(CC2)NC(=O)Nc2ccccc23)C1=O [Example 9, ′^1H-Spiro[piperidine-4,4′-quinazolin]-2′(3′H)-one-1-carboxylic acid [8-oxo-9-(1-(S)-phenyl-ethyl)-3,6,7,8,9,10-hexahydro-2,3,9-triaza-(R)-cyclohepta[e]inden-7-yl]-amide] | 100 to 1000 nM |
| CC(C)(C)CN1Cc2c(cc(Cl)c3[nH]ncc23)C[C@@H](CC(=O)Nc2ccc3c(c2)CC2(C3)NC(=O)NC2=O)C1=O (mixture of isomers) [Example 87, (±)-1-[[(7S)-4-chloro-9-(2,2-dimethylpropyl)-3,6,7,8,9,10-hexahydro-8-oxoazepino[3,4-e]indazol-7-yl]acetyl]-Amino-spiro[imidazolidine-4,2′-indane]-2,5-dione] | 10 to 100 nM |

The remaining lines, values ahead:

| IC50 | Compound |
| --- | --- |
| 10 to 100 nM | CC(C)(C)OC(=O)N1CCC(N2Cc3c(ccc4[nH]ncc34)C[C@@H](NC(=O)N3CCC(N4Cc5ccccc5NC4=O)CC3)C2=O)CC1 [Example 17] |
| 0.1 to 10 nM | CC(C)(C)CN1Cc2c(ccc3[nH]ncc23)CC(N/C(=N/C#N)N2CCC(N3Cc4ccccc4NC3=O)CC2)C1=O (centres unmarked) [Example 88, (E, Z)-N′-cyano-N-(9-neopentyl-8-oxo-3,6,7,8,9,10-hexahydroazepino[3,4-e]indazol-7-yl)-4-(2-oxo-1,2-dihydroquinazolin-3(4H)-yl)piperidine-1-carboxamidine] |
| 0.1 to 10 nM | CC(C)(C)CN1Cc2c(cc(Cl)c3[nH]ncc23)C[C@@H](N/C(=N/C#N)N2CCC(c3cc4ccccc4[nH]c3=O)CC2)C1=O [Example 99] |
| 100 to 1000 nM | O=C(N[C@@H]1Cc2ccc3[nH]ncc3c2CN(C2CCNCC2)C1=O)N1CCC(N2Cc3ccccc3NC2=O)CC1 [Example 18, 4-(2-Oxo-1,4-dihydro-2H-quinazolin-3-yl)-piperidine-1-carboxylic acid (8-oxo-9-piperidin-4-yl-3,6,7,8,9,10-hexahydro-2,3,9-triaza-(R)-cyclohepta[e]inden-7-yl)-amide] |
| > 1000 nM | CC(C)(C)CN1Cc2c(ccc3[nH]ncc23)C[C@@H](CCN2CCC(N3Cc4ccccc4NC3=O)CC2)C1=O [Example 64, (S)-9-neopentyl-7-(2-(4-(2-oxo-1,2-dihydroquinazolin-3(4H)-yl)piperidin-1-yl)ethyl)-6,7,9,10-tetrahydroazepino[3,4-e]indazol-8(3H)-one] |
